Activity calls are given as the source filed them. No cut-off for these calls is given here.
Key:
Assay type in all cases: functional, cell-based
L1210 = assay: Antiproliferative activity against L1210 cell line; details: Mus musculus
HT-29 = assay: Antiproliferative activity against HT29 cell line; details: Homo sapiens
A549 = assay: Antiproliferative activity against A549 cell line; details: Homo sapiens
V79 = assay: Antiproliferative activity against V79 cell line; details: Cricetulus griseus

| IC50 (HT-29) [µM] | IC50 (A549) [µM] | SMILES | Activity (L1210) | IC50 (V79) [µM] |
| --- | --- | --- | --- | --- |
| – | – | Nc1ccc2cc3ccccc3nc2c1CO | Active | – |
| 4.5 | – | CCOC(=O)Nc1ccc2cc3ccccc3nc2c1COC(=O)OCC | – | – |
| 2.5 | 3.5 | O=C(Nc1ccc2cc3ccccc3nc2c1CO)OCc1ccc([N+](=O)[O-])cc1 | – | 3.5 |
| 9 | > 10 | O=C(Nc1ccc2cc3ccccc3nc2c1COC(=O)OCc1ccc([N+](=O)[O-])cc1)OCc1ccc([N+](=O)[O-])cc1 | – | > 10 |

— ChEMBL document CHEMBL1146937, “Nitrobenzylcarbamate prodrugs of cytotoxic acridines for potential use with nitroreductase gene-directed enzyme prodrug therapy” (Bioorg Med Chem Lett, 2006)
